Test results reported in US5981558A, “DC107 derivatives” (Kyowa Hakko Kogyo Co., Ltd., priority 1996, dated 1999).
Like-named read-outs stand apart in the source and are kept apart here.

Assays:
[1] = tested on: Sarcoma 180 mouse solid tumor; test: Antitumor activity against Sarcoma 180 mouse solid tumor; type: in vivo, mouse (ddY); details: Sarcoma-180, iv, 168 h, read-out: T/C (tumor volume ratio treated/control)
Description: To a ddY mouse were intraperitoneally transplanted 5×10^6 sarcoma 180 cells. On the seventh day from the transplant, the cells were collected from the ascites, washed once with sterilized physiological saline, and then diluted with sterilized physiological saline to prepare a cell suspension having a concentration of 5×10^7 cells/mL. This suspension was transplanted in an amount of 0.01 mL to a subcutaneous part of the right axilla of each of male ddY mice each weighing 20±1 g.
A test compound was dissolved in physiological saline containing polyoxyethylene sorbitan monolaurate. At 24 hours after the tumor transplant, 0.2 mL of the solution was intravenously administered to the tail of each of a group of five mice.

HeLa S3 cells = test: HeLa S3 Cell Growth Inhibition Test; type: cell-based; details: Homo sapiens
Description: In each well of a 96-well microtiter plate was placed 0.1 mL of HeLa S3 cells having a concentration of 8×10^3 cells/mL and prepared in an MEM culture medium containing 10% fetal bovine serum and 2 mM glutamine. After the cells were incubated overnight at 37° C. in a carbon dioxide incubator, a test compound suitably diluted with a medium was added to the wells in an amount of 0.05 mL for each well. The cells were incubated at 37° C. for 72 hours in a carbon dioxide incubator. After the culture supernatant was removed, 0.1 mL of a culture medium containing 0.02% Neutral Red was added to each well. The cells were then incubated at 37° C. for 1 hour in a carbon dioxide incubator to dye the cells. After the culture supernatant was removed, each residue was rinsed once with physiological saline and the pigment was extracted with 0.001 N hydrochloric acid/30% ethanol. The absorbance at 550 nm of each extract was measured with a microplate reader. The drug concentration required for the 50% inhibition of cell growth, which is referred to as IC50, was calculated by comparing the absorbance for untreated cells with those for cells treated with the drug in known concentrations.

[2] = HeLa S3, 72 h, read-out: IC50, HeLa S3 cell growth inhibition, HeLa S3, 72 hours incubation, Neutral Red
[3] = HeLa S3, 72 hours incubation, Neutral Red, read-out: IC50, HeLa S3 cell growth inhibition
[4] = HeLa S3, 72 h, HeLa S3, 72 hours incubation, Neutral Red, read-out: IC50, HeLa S3 cell growth inhibition

Compound: COCCOCCOCCOCCOCCOCC(=O)OCSC(=O)C(C)(O)C12CC/C(C)=C/C(O)C(=O)/C=C/C=C\c3csc(n3)C(C)N(C(=O)C1)[S+]2[O-] (stereo not drawn) [Compound 37]
- response vs control in vivo at 8 mg/kg [1]: 36%

Compound: C/C1=C\C(O)C(=O)/C=C/C=C\c2csc(n2)C(C)N2C(=O)CC(C(C)(O)C(=O)SCc3oc(=O)oc3CO[C@@H]3C[C@H](O)[C@@H](O)[C@H](C)O3)(CC1)[S+]2[O-] (stereo partly drawn) [Compound 154]
- response vs control in vivo at 4 mg/kg [1]: 40%

Compound: COCCOCCOCCOC(=O)OCSC(=O)C(C)(O)C12CC/C(C)=C/C(O)C(=O)/C=C/C=C\c3csc(n3)C(C)N(C(=O)C1)[S+]2[O-] (stereo not drawn) [Compound 149]
- response vs control in vivo at 8 mg/kg [1]: 42%

Compound: COCCOCCOCCOCC(=O)OCSC(=O)C(C)(O)C12CC/C(C)=C/C(O)C(=O)/C=C/C=C\c3csc(n3)C(C)N(C(=O)C1)[S+]2[O-] (stereo not drawn) [Compound 147]
- response vs control in vivo at 2 mg/kg [1]: 43%

Compound: C/C1=C\C(OC2CCCCO2)C(=O)/C=C/C=C\c2csc(n2)C(C)N2C(=O)CC(C(C)(O)C(=O)SCc3oc(=O)oc3COC(=O)CN(C)C)(CC1)[S+]2[O-] (stereo not drawn) [Compound 159]
- response vs control in vivo at 32 mg/kg [1]: 33%

Compound: C/C1=C\C(O)C(=O)/C=C/C=C\c2csc(n2)C(C)N2C(=O)CC(C(C)(O)C(=O)SCc3oc(=O)oc3CO[C@@H]3C[C@@H](O)[C@H](O)[C@@H](CO)O3)(CC1)[S+]2[O-] (stereo partly drawn) [Compound 152]
- response vs control in vivo at 16 mg/kg [1]: 17%

Compound: C/C1=C\C(O)C(=O)/C=C/C=C\c2csc(n2)C(C)N2C(=O)CC(C(C)(O)C(=O)SCc3oc(=O)oc3CO[C@H]3C[C@H](O)[C@@H](O)[C@H](C)O3)(CC1)[S+]2[O-] (stereo partly drawn) [Compound 155]
- response vs control in vivo at 8 mg/kg [1]: 37%

Compound: C/C1=C\C(O)C(=O)/C=C/C=C\c2csc(n2)C(C)N2C(=O)CC(C(C)(O)C(=O)SCOC(=O)CCCNC(=O)C3(C)COC(C)(C)OC3)(CC1)[S+]2[O-] (stereo not drawn) [Compound 138]
- response vs control in vivo at 4 mg/kg [1]: 34%

Compound: C/C1=C\C(O)C(=O)/C=C/C=C\c2csc(n2)C(C)N2C(=O)CC(C(C)(O)C(=O)SCOC(=O)c3ccc(O)cc3)(CC1)[S+]2[O-] (stereo not drawn) [Compound 67]
- IC50 (HeLa S3 cells; [2]): 50 nM

Compound: CC1=CC(O)C(=O)C=CC=Cc2csc(n2)C(C)N2C(=O)CC(C(C)(O)C(=O)SCOC(=O)c3ccc(C(=O)O)cc3)(CC1)[S+]2[O-] (stereo not drawn) [Compound 9]
- IC50 (HeLa S3 cells; HeLa S3, 72 h, footnote *: Value after 72 hours of drug treatment, read-out: IC50, HeLa S3 cell growth inhibition): 150 nM

Compound: CC[Si](CC)(CC)OCc1oc(=O)oc1CSC(=O)C(C)(O)C12CC/C(C)=C/C(OC3CCCCO3)C(=O)/C=C/C=C\c3csc(n3)C(C)N(C(=O)C1)[S+]2[O-] (stereo not drawn) [Compound 76]
- IC50 (HeLa S3 cells; [3]): 260 nM

Compound: CC[Si](CC)(CC)OC[C@H]1OC(OCc2oc(=O)oc2CSC(=O)C(C)(O)C23CC/C(C)=C/C(O)C(=O)/C=C/C=C\c4csc(n4)C(C)N(C(=O)C2)[S+]3[O-])C[C@@H](O[Si](CC)(CC)CC)[C@@H]1O[Si](CC)(CC)CC (stereo partly drawn) [Compound 81]
- IC50 (HeLa S3 cells; [3]): 210 nM

Compound: CC[Si](CC)(CC)OCc1oc(=O)oc1CSC(=O)C(C)(O)C12CC/C(C)=C/C(O)C(=O)/C=C/C=C\c3csc(n3)C(C)N(C(=O)C1)[S+]2[O-] (stereo not drawn) [Compound 75]
- IC50 (HeLa S3 cells; [3]): 240 nM

Compound: C/C1=C\C(OC2CCCCO2)C(=O)/C=C/C=C\c2csc(n2)C(C)N2C(=O)CC(C(C)(O)C(=O)SCOC(=O)c3ccc(O)cc3)(CC1)[S+]2[O-] (stereo not drawn) [Compound 68]
- IC50 (HeLa S3 cells; [2]): 35 nM

Compound: C/C1=C\C(OC2CCCCO2)C(=O)/C=C/C=C\c2csc(n2)C(C)N2C(=O)CC(C(C)(O)C(=O)SCc3oc(=O)oc3COC(=O)c3cccnc3)(CC1)[S+]2[O-] (stereo not drawn) [Compound 93]
- IC50 (HeLa S3 cells; [2]): 9.2 nM

Compound: C/C1=C\C(OC2CCCCO2)C(=O)/C=C/C=C\c2csc(n2)C(C)N2C(=O)CC(C(C)(O)C(=O)SCc3oc(=O)oc3COC(=O)CN(C)C)(CC1)[S+]2[O-] (stereo not drawn) [Compound 92]
- IC50 (HeLa S3 cells; [2]): 2.7 nM

Compound: C=C(CSC(=O)C(C)(O)C12CC/C(C)=C/C(OC3(OC)CCOCC3)C(=O)/C=C/C=C\c3csc(n3)C(C)N(C(=O)C1)[S+]2[O-])C(=O)O (stereo not drawn) [Compound 116]
- IC50 (HeLa S3 cells; [4]): 8500 nM

Compound: CC(=O)Oc1ccc(CCC(=O)OCSC(=O)C(C)(O)C23CCC(C)=CC(O)C(=O)C=CC=Cc4csc(n4)C(C)N(C(=O)C2)[S+]3[O-])cc1 (stereo not drawn) [Compound 32]
- IC50 (HeLa S3 cells; [4]): 1.3 nM
